Reference: US11471477B2, “Methods for treating triple-negative breast cancer” (Chan Zuckerberg Biohub, Inc., priority 2017, dated 2022)

Tests used:
HS578T cells = experiment: Cell viability assay (WST-1), shRNA-transduced cells; assay type: cell-based, human; conditions: 4 days after transduction; normalized to control shRNA
Procedure: (§1) For in vitro cell line experiments, concentrated lentiviral supernatant (to achieve an MOI of 3) was mixed with cells at the time of seeding. Cells were monitored by visualization of RFP under fluorescence microscopy. All flow cytometry analyses were performed after at least 72 hours of infection.
(§2) For cell lines treated with chemical or infected with lentivirus, WST-1 Cell Proliferation Reagent (Roche) was added at 1:10 (v/v) final dilution to each well per manufacturer's instructions. Cells were subsequently incubated at 37° C. and 5% CO2. Between 1 and 4 hours after addition of reagent, plates were analyzed on a SpectraMax M3 Bioanalyzer (Molecular Devices). Absorbance for each well was measured at 450 nm (signal wavelength) and 650 nm (reference wavelength). Thus, the signal for each experimental sample was Absorbanceexperimental (A450nm-A650nm). To correct for the effect of media, Absorbancebackground (A450nm-A650nm) was obtained by measuring absorbance in a blank well. Thus, the background corrected signal for each sample Acorrected=Absorbanceexperimental−Absorbancebackground. All Acorrected values for the knockdowns were normalized to the Acorrected value for the control sample to obtain a ‘Relative Viability’.

MDA-MB231 cells = experiment: as above; assay type: cell-based, human; conditions: 4 days after transduction; normalized to control shRNA
Procedure: as §1, §2

MDA-MB468 cells = experiment: as above; assay type: cell-based, human; conditions: 4 days after transduction; normalized to control shRNA
Procedure: as §1, §2

[1] = system: human mammary epithelial cells (HMEC); experiment: Cell viability assay (WST-1), non-transformed mammary cells; assay type: cell-based; conditions: 4 days after transduction; normalized to control shRNA
Procedure: as §1, §2

PDX-T1 tumor cells = experiment: Organoid colony formation assay; assay type: cell-based, human; conditions: colonies counted 2 weeks after transduction
Procedure: (§3) For in vivo PDX tumor growth and organoid colony formation experiments, concentrated lentiviral supernatant (to achieve an MOI of 10) was mixed with single cell suspensions of PDX tumor cells in organoid media with 4 μg/mL of Polybrene (Sigma-Aldrich). Organoid media consisted of: Advanced DMEM/F12 (Invitrogen), 10% FBS (Hyclone), 2.5% growth factor-reduced Matrigel (BD), 10 ng/mL mouse EGF (R&D), 100 ng/mL Noggin (R&D), 250 ng/mL RSPO-1 (R&D), 1× B27 (Invitrogen), 1× N2 (Invitrogen), and PSA (Life Technologies). Cells were then spinoculated by centrifuging at 15° C. for 2 hours at 1200×g. Cells were resuspended by pipetting and left overnight in 48-well ultra-low attachment cell culture plates (Corning).
For organoid colony formation assays, cells were transferred the next day to matrigel. For in vivo PDX assays, approximately 75% of the cells were injected into NSG mice as described in the PDX tumor engraftment section. […] Dissociated cells were resuspended in flow cytometry buffer and analyzed by flow cytometry to determine the ‘baseline’ RFP percentage for cells that were injected into the mice.
Irradiated L1-Wnt3a feeder cells (generous gift of Dr. Roel Nusse) were mixed with growth factor reduced matrigel (BD Biosciences) and allowed to solidify at 37° C. […] Colonies were counted under fluorescence microscopy. Only RFP positive colonies (which represent transduced cells) were counted. […]

CDK19 = experiment: Quantitative PCR RNA expression analysis of CDK19 knockdown; assay type: cell-based, human; conditions: normalized to control shRNA and beta-actin
Procedure: Cells were lysed with Trizol (Life Technologies) and RNA was extracted according to the manufacturer's instruction. RNA was then treated with DNAsel to remove contaminating genomic DNA. RNA was reverse transcribed to cDNA using SuperScript III First Strand Synthesis kit (Life Technologies) according to the manufacturer's instructions. TaqMan Gene Expression Master Mix (Applied Biosystems) and the following TaqMan Gene Expression Assays (Applied Biosystems) were used following manufacturer's instructions: ACTB, Hs00357333_g1; CDK19, Hs01039931_m1; CDK8, Hs00993274_m1. Data was collected on a 7900HT Fast Real-Time PCR System (Applied Biosystems) and data analyzed with SDS 2.4 software (Applied Biosystems). Gene expression data in each sample was normalized against the expression of beta-actin.

PDX-T1 [2] = experiment: PDX tumor growth in NSG mice, percentage of RFP positive cells by flow cytometry; assay type: in vivo; conditions: normalized to control shRNA
Procedure: as §3
(§4) For organoid colony formation assays, cells were transferred the next day to matrigel. For in vivo PDX assays, approximately 75% of the cells were injected into NSG mice as described in the PDX tumor engraftment section. The remainder 25% of cells were plated on matrigel and grown in organoid media for 72 hours until the cells became RFP positive. At that point media was removed and exchanged for dispase and incubated for 2-3 h until the matrigel dissolved. Dissociated cells were resuspended in flow cytometry buffer and analyzed by flow cytometry to determine the ‘baseline’ RFP percentage for cells that were injected into the mice.
(§5) Single cell suspensions of PDX cells were resuspended in 50% (v/v) mixtures of normal matrigel (BD Biosciences) and flow cytometry buffer in a total volume of 50-100 μL. Using an insulin syringe, cells were injected subcutaneously into the nipple of female NSG mice at the fourth abdominal fat pad. For limiting dilution assays, the specific number of cells injected into the mice were determined by flow cytometry and secondarily by manual counting with a hemocytometer.
(§6) Flow cytometry was performed with a 100 μm nozzle on a Flow Cytometry Aria II (BD Biosciences) with Diva software (BD Biosciences). Data analysis was performed using Flowjo software (Flowjo). For all experiments, side scatter and forward scatter profiles (area and width) were used to eliminate debris and cell doublets. Dead cells were eliminated by excluding 4′,6-diamidino-2-phenylindole (DAPI)-positive cells (Molecular Probes). For PDX tumor cells, they were gated for GFP positivity and then for RFP positivity. RFP percentage is the percentage of GFP positive cells that are also RFP positive. For each sample, we obtain the RFP fraction that is: the RFP % in the tumor divided by the baseline RFP % (see ‘Lentivirus infection’ section). RFP fraction for each sample is then normalized to the RFP fraction for the shRNA control sample which is set at 100% to obtain the ‘Normalized % RFP’.

PDX-T2 = experiment: as above; assay type: in vivo; conditions: normalized to control shRNA
Procedure: as §3, §4, §5, §6

PDX-T3 = experiment: as above; assay type: in vivo; conditions: normalized to control shRNA
Procedure: as §3, §4, §5, §6

PDX-T4 [3] = experiment: as above; assay type: in vivo
Procedure: as §3, §4, §5, §6

PDX-T1 [4] = experiment: RFP positive lung metastases in mice bearing PDX tumor xenografts; assay type: in vivo, NSG mice
Source text: (§7) Xenograft tumors and mice lungs were surgically resected after the mice were euthanized. A 3 to 4 mm section is cut from each tumor and saved in ice cold PBS for imaging. The mice lungs and tumors were imaged on a M205FA Fluorescence Stereo Microscope (Leica) and images were captured with a DFC310FX camera (Leica).
(§8) Percentage of mice with RFP positive lung metastases from mice bearing PDX-T1 (FIG. 1K) or PDX-T4 (FIG. 1L) tumor xenografts are shown. Number of mice with RFP positive lung metastases and total number of mice in each treatment group is shown as a fraction for each condition. PDX tumor cells were transduced with either control shRNA or CDK19 targeting shRNA (shCDK19-1, shCDK19-2) (For FIG. 1K, n=9, experiment performed three times; For […], n=3, experiment performed once). […] In FIG. 1N, bright field images (left column) show gross lung morphology, FITC images (middle column) identify metastatic tumor cells labeled with GFP, and Texas-Red images (right column) identify shRNA-transduced metastatic cells labeled with RFP. We also tested the effect of CDK19 knockdown on PDX-T4, an aggressive PDX obtained from the brain metastasis of a patient with a chemotherapy-resistant inflammatory breast cancer.

PDX-T4 [5] = experiment: as above; assay type: in vivo, NSG mice
Source text: as §7, §8

PDX-T1 [6] = experiment: Survival of mice engrafted with shRNA-transduced PDX-T1 xenografts; assay type: in vivo, NSG mice; conditions: mice with PDX-T1 tumors; vs control shRNA; sacrificed when tumor exceeded 17 mm
Source text: We explored the effect of CDK19 knockdown on the growth of pre-established organoids in vitro and in pre-established PDX tumors in vivo. This aimed to model the treatment of patients' pre-existing tumors. […] In FIGS. 4A and 4B, number of organoid colonies at Day 0 (FIG. 4A) and Day 16 (FIG. 4B) after initiating doxycycline treatment is shown, ****P<0.0001; ns is P>0.05 (mean s.d., n=6, experiment performed twice, P values determined by unpaired t-test). […] In FIGS. 4C and 4D, the growth of pre-established tumors in the doxycycline fed NSG mice and control NSG mice are shown for inducCDK19KD-PDX-T1, ****P<0.0001; ***P<0.001 (mean±s.d., n=5, experiment performed twice, P values determined by unpaired t-test) (FIG. 4C) and inducCDK19KD-PDX-T3, ****P<0.0001; ***P<0.001 (mean±s.d., n=5, experiment performed once, P values determined by unpaired t-test) (FIG. 4D). CDK19 shRNA induced tumors were ultimately 82% smaller in inducCDK19KD-PDX-T1 tumors and 38% smaller in inducCDK19KD-PDX-T3 tumors when compared to control tumors (FIGS. 4C and 4D). […] Shown in FIG. 4E are Kaplan-Meir survival curves for mice engrafted with PDX-T1 xenografts transduced with control shRNA (black line), shCDK19-1 (solid gray line) or shCDK19-2 (dashed gray line). Mice were followed with weekly measurements of tumor diameters. Mice were sacrificed when the longest diameter of their tumor exceeded 17 mm. […]

Q: How did the “Relative viability of HS578T cells” value (HS578T cells) turn out when “shCDK19-1: CDK19 targeting shRNA, sense strand 5′-GCGAGAATTGAAGTACCTTAA-3′ (SEQ ID NO: 1), lentiviral vector (sense GCGAGAATTGAAGTACCTTAA; listed as Homo sapiens)” was run?
A: Its value is “significantly decreased the viability”.

Q: And the “Relative viability of MDA-MB231 cells” value (MDA-MB231 cells)?
A: Its value is “significantly decreased the viability”.

Q: And the “Relative viability of MDA-MB468 cells” value (MDA-MB468 cells)?
A: The value was “significantly decreased the viability”.

Q: And the “Relative viability of HMEC cells” value [1]?
A: Its value is “neither of the two CDK19 knockdowns affected the viability”.

Q: What about the “Formation of organoid colonies” value (PDX-T1 tumor cells) of the same substance?
A: The value was “inhibited the formation of organoid colonies”.

Q: And the “Expression of CDK19 by RT-qPCR” value (CDK19; MDA-MB231)?
A: The value was “effectively silences CDK19”.

Q: And the “Expression of CDK19 by RT-qPCR” value (CDK19; MDA-MB468)?
A: The value was “effectively silences CDK19”.

Q: And the “Expression of CDK19 by RT-qPCR” value (CDK19; PDX-T1)?
A: Its value is “effectively silences CDK19”.

Q: And the “Percentage of RFP positive cells in tumors” value (from here on “Percentage”) (PDX-T1 [2])?
A: Its value is “significant reduction in the percentage of RFP positive cells”.

Q: And the “Percentage” value (PDX-T2)?
A: The value was “significant reduction in the percentage of RFP positive cells”.

Q: What about the “Percentage” value (PDX-T3) of the same substance?
A: Its value is “significant reduction in the percentage of RFP positive cells”.

Q: What about the “Growth of the PDX” value (PDX-T4 [3]) of the same substance?
A: The value was “inhibited both the growth of the PDX”.

Q: What about the “RFP positive lung metastases” value (PDX-T1 [4]) of the same substance?
A: The value was “eliminated the detection of any lung metastases”.

Q: And the “RFP positive lung metastases” value (PDX-T4 [5])?
A: Its value is “prevented transduced (RFP positive) TNBC cells from metastasizing to the lungs”.

Q: What about the Overall survival (PDX-T1 [6]) of the same substance?
A: Its Overall survival is “significantly longer”.

Q: For “shCDK19-2: CDK19 targeting shRNA, sense strand 5′-ACCAGCAAATATCCTAGTAAT-3′ (SEQ ID NO: 2), lentiviral vector (sense ACCAGCAAATATCCTAGTAAT; listed as Homo sapiens)”, which “Relative viability of HS578T cells” value (HS578T cells) is on record?
A: The value was “significantly decreased the viability”.

Q: And the “Relative viability of MDA-MB231 cells” value (MDA-MB231 cells)?
A: The value was “significantly decreased the viability”.

Q: What about the “Relative viability of MDA-MB468 cells” value (MDA-MB468 cells) of the same substance?
A: Its value is “significantly decreased the viability”.

Q: What about the “Relative viability of HMEC cells” value [1] of the same substance?
A: Its value is “neither of the two CDK19 knockdowns affected the viability”.

Q: And the “Formation of organoid colonies” value (PDX-T1 tumor cells)?
A: The value was “inhibited the formation of organoid colonies”.

Q: What about the “Expression of CDK19 by RT-qPCR” value (CDK19; MDA-MB231) of the same substance?
A: Its value is “effectively silences CDK19”.

Q: What about the “Expression of CDK19 by RT-qPCR” value (CDK19; MDA-MB468) of the same substance?
A: The value was “effectively silences CDK19”.

Q: And the “Expression of CDK19 by RT-qPCR” value (CDK19; PDX-T1)?
A: The value was “effectively silences CDK19”.

Q: What about the “Percentage” value (PDX-T1 [2]) of the same substance?
A: The value was “significant reduction in the percentage of RFP positive cells”.

Q: What about the “Percentage” value (PDX-T2) of the same substance?
A: The value was “significant reduction in the percentage of RFP positive cells”.

Q: And the “Percentage” value (PDX-T3)?
A: The value was “significant reduction in the percentage of RFP positive cells”.

Q: And the “Growth of the PDX” value (PDX-T4 [3])?
A: Its value is “inhibited both the growth of the PDX”.

Q: What about the “RFP positive lung metastases” value (PDX-T1 [4]) of the same substance?
A: Its value is “eliminated the detection of any lung metastases”.

Q: What about the “RFP positive lung metastases” value (PDX-T4 [5]) of the same substance?
A: The value was “prevented transduced (RFP positive) TNBC cells from metastasizing to the lungs”.

Q: What about the Overall survival (PDX-T1 [6]) of the same substance?
A: Its Overall survival is “significantly longer”.
